Results published in paper PMC9890698 (BMC Biology, 2023).
Where “and” joins values, the source holds several entries; their conditions need not be identical. Identical values can stand only once.

What was measured:
[1] = target: T1, Human P2Y1-R (Homo sapiens, UniProt P47900); experiment: β-arrestin 2 recruitment BRET1 assay (β-arrestin 2-RLuc / P2Y1-R-Venus) in HEK293T cells; type: cell-based; conditions: for b-arrestin 2 signaling, Ligand-modulated BRET (% of maximum MRS2179 mean value): Figure 4b, individual replicates
T1 construct: expressed in transfected cells; host or cells: HEK293T/17
T1 sequence (P47900 whole entry): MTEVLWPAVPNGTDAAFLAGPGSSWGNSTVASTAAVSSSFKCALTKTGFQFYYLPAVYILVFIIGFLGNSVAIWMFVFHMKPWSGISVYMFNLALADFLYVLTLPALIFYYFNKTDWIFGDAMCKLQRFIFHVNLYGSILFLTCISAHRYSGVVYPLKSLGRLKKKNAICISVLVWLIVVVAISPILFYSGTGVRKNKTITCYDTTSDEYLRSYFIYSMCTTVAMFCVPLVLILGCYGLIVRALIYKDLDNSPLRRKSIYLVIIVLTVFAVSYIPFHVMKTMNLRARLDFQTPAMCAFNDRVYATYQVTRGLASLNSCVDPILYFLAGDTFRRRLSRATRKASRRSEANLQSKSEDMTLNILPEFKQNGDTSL
Excerpt: We assessed β-arrestin 2 recruitment to the receptor using BRET^1 assay. The assay measures the interaction between β-arrestin 2 fused to the Renilla reniformis luciferase (RLuc) energy donor and the receptor fused to fluorescent Venus energy acceptor (Fig. 3a). The recruitment of cytosolic β-arrestin 2 to the receptor at the plasma membrane in the presence of an agonist will promote a significant increase of the BRET signal compared to the basal state, reflecting the close proximity between the β-arrestin 2 energy donor and the receptor energy acceptor [22].
Human P2Y1-R (NCBI Reference Sequence: NM_002563.2) and P2Y12-R (NCBI Reference Sequence: NM_022788.3) were fused to double Myc epitope and rat AT1-R (NCBI Reference Sequence: NM_030985.4) to HA tag in N-terminus extracellular region. Alternatively, receptors were also fused to Venus tag in C-terminus intracellular region. Plasmids encoding Gαq-RLuc8, GFP2-Gγ2 and untagged Gβ1 were previously described. ADP was purchased from Sigma-Aldrich/Merck (Darmstadt, Germany). […] The Gq inhibitor (FR900359) was kindly supplied by Evi Kostenis (University of Bonn. Germany).
G protein activation and β-arrestin 2 recruitment were performed as previously described. Briefly, vectors encoding receptors, Gαq-RLuc8, GFP2-Gγ2, Gβ1, or β-arrestin 2 were transiently cotransfected into HEK293T/17 cells as indicated in the figure legends. Forty-eight hours after transfection, cells were washed and resuspended in PBS containing 0.1% (w/v) glucose at room temperature and then distributed (80 μg proteins/well) in a 96-well microplate (PerkinElmer). For G protein activation experiments (BRET^2), cells were incubated in the absence (basal BRET signal) or in the presence of ligand for 1 minute. BRET signal between RLuc8 and GFP2 was measured after addition of the luciferase substrate coelenterazine 400a (5 μM). For β-arrestin 2 recruitment (BRET^1), cells were stimulated with ligands for 5 or 15 min. BRET signal was recorded after incubation with coelenterazine h (5 μM) for 8 min. For kinetics studies, BRET signal between RLuc and Venus was recorded at 20-s intervals at basal state for the 2 first minutes and then for 5 min after ligand injection. For saturation curves (BRET^1), the expression level of Venus- or RLuc-tagged protein was determined by direct measurement of total fluorescence and luminescence respectively. Total fluorescence was first measured with an excitation filter at 485 nm and an emission filter at 520 nm. Then, the same sample was incubated for 8 minutes with 5 μM coelenterazine h and the total luminescence was measured. BRET^2 and BRET^1 readings were collected using a modified Infinite F500 (Tecan Group Ltd). The BRET^2 signal was calculated by the ratio of emission of GFP2 (510–540 nm) to RLuc8 (370–450 nm) and the BRET^1 signal by the ratio of emission of Venus (520–570 nm) to RLuc (370–480 nm). Sometimes, results are expressed as the Net BRET computed by deducting the BRET background signal (obtained in the presence of the energy donor alone) from the BRET signal (acquired from cells expressing both the energy donor and acceptor).

[2] = test system: washed human platelets (P2Y1-R/Gαq signaling); experiment: IP1 accumulation assay (HTRF) in washed human platelets; type: cell-based; conditions: washed human platelets, ADP 100 μM, antagonists 10 μM, Gq inhibitor 100 nM, 2 h, apyrase 0.02 U/mL, result in words
Method: As performed in HEK293T cells, we thus quantified intracellular IP1 levels to monitor Gαq protein-dependent signaling pathways.
Human platelets were prepared from adult healthy volunteers free of antiplatelet or anti-inflammatory medication since at least ten days. […] After two steps of centrifugation and suspension in Tyrode’s buffer (140 mM NaCl, 5 mM KCl, 5 mM KH2PO4, 1 mM MgSO4, 10 mM HEPES, 5 mM glucose and 0.35% (w/v) BSA, pH 6,7), washed platelets were suspended in the same buffer adjusted to pH 7.4 and containing 1 mM CaCl2. The final platelet suspension was adjusted to 3.10^8 platelets/mL and rested for 45 min in the presence of 0.02 U/mL apyrase and 10 μM indomethacin at 37 °C prior experiments. PGI2 (0.5 μM) was added before centrifugation steps to avoid platelet activation.
Quantification of intracellular IP1 was performed using the HTRF (Homogeneous Time Resolved Fluorescence) IP1 competitive immunoassay (IP-One Tb kit. Cisbio. France) according to the manufacturer’s instructions. Briefly, 20,000 HEK293T/17 cells or 3.10^6 platelets were distributed in a 384-well white microplate (Greiner) and incubated with the indicated molecules for 30 min or 2 h at 37 °C in the presence of 50 mM of LiCl to prevent IP1 degradation. After addition of d2-labeled IP1 (acceptor) and anti-IP1-Cryptate (donor) for 1 h, the specific FRET signals were calculated by the fluorescence ratio of the acceptor and donor emission signal (665/620 nm) collected using a modified Infinite F500 (Tecan Group Ltd). Conversion of the HTRF ratio of each sample into IP1 concentrations was performed on the basis of a standard curve to determine the linear dynamic range of the assay.

[3] = β-Arrestin 2 signaling, Fig. 4b, 15 min

## CNc1nc(I)nc2c1ncn2[C@H]1C[C@H](OP(=O)(O)O)[C@]2(COP(=O)(O)O)C[C@H]12 [MRS2500, 2-iodo-N6-methyl-(N)-methanocarba-2′-deoxyadenosine-3′,5′-bisphosphate]
[1]; [Ligand] 1.00E-04 M
  b-arrestin 2 signaling, Ligand-modulated BRET (% of maximum MRS2179 mean value): -104.002 % of maximum MRS2179 mean value and -94.5729 % of maximum MRS2179 mean value and -88.0915 % of maximum MRS2179 mean value and -87.9506 % of maximum MRS2179 mean value and -95.5776 % of maximum MRS2179 mean value
[1]; [Ligand] 1.00E-05 M
  b-arrestin 2 signaling, Ligand-modulated BRET (% of maximum MRS2179 mean value): -100.008 % of maximum MRS2179 mean value and -86.7675 % of maximum MRS2179 mean value and -90.0217 % of maximum MRS2179 mean value and -77.5434 % of maximum MRS2179 mean value and -80.2036 % of maximum MRS2179 mean value
[1]; [Ligand] 1.00E-06 M
  b-arrestin 2 signaling, Ligand-modulated BRET (% of maximum MRS2179 mean value): -95.5169 % of maximum MRS2179 mean value and -78.4136 % of maximum MRS2179 mean value and -91.3759 % of maximum MRS2179 mean value and -80.0813 % of maximum MRS2179 mean value and -75.5319 % of maximum MRS2179 mean value
[1]; [Ligand] 1.00E-07 M
  b-arrestin 2 signaling, Ligand-modulated BRET (% of maximum MRS2179 mean value): -75.2707 % of maximum MRS2179 mean value and -41.8369 % of maximum MRS2179 mean value and -76.2614 % of maximum MRS2179 mean value and -66.0129 % of maximum MRS2179 mean value and -61.7221 % of maximum MRS2179 mean value
[1]; [Ligand] 1.00E-08 M
  b-arrestin 2 signaling, Ligand-modulated BRET (% of maximum MRS2179 mean value): -7.396 % of maximum MRS2179 mean value and -28.7379 % of maximum MRS2179 mean value and -20.7409 % of maximum MRS2179 mean value and -45.6895 % of maximum MRS2179 mean value and -5.348 % of maximum MRS2179 mean value
[1]; [Ligand] 1.00E-09 M
  b-arrestin 2 signaling, Ligand-modulated BRET (% of maximum MRS2179 mean value): -12.4711 % of maximum MRS2179 mean value and -18.0888 % of maximum MRS2179 mean value and -11.5273 % of maximum MRS2179 mean value and -5.043 % of maximum MRS2179 mean value and 9.479 % of maximum MRS2179 mean value
[1]; [Ligand] 1.00E-10 M
  b-arrestin 2 signaling, Ligand-modulated BRET (% of maximum MRS2179 mean value): -23.8118 % of maximum MRS2179 mean value and -10.0375 % of maximum MRS2179 mean value and -6.745 % of maximum MRS2179 mean value and -2.51 % of maximum MRS2179 mean value and -4.926 % of maximum MRS2179 mean value
[1]; HEK293T cells, high P2Y1-R expression, result in words
  Effect on β-arrestin 2 recruitment / BRET signal between P2Y1-R-Venus and β-arrestin 2-RLuc: behaved as inverse agonists
[1]; compared to MRS2179, from potencies of Table 1
  Signaling bias (β-arrestin 2 versus Gαq protein signaling): biased inverse agonist
[1]; [3]
  EC50: 47.5 nM
  pEC50 ± s.e.m.: 7.323 ± 0.1193
[2]
  Effect on IP1 levels: inverse agonist efficacy

## Nc1ncnc2c1ncn2[C@@H]1O[C@H](COP(=O)(O)OP(=O)(O)O)[C@@H](O)[C@H]1O [ADP, adenosine diphosphate]
[2]
  Effect on IP1 levels: significantly increased
